Reference: ChEMBL document CHEMBL3228010, “Potential antitumor agents. 29. Quantitative structure-activity relationships for the antileukemic bisquaternary ammonium heterocycles” (J Med Chem, 1979)

How the values were obtained:
[1] = Displacement of ethidium from poly[d(G-C)]-poly[d(G-C)] DNA (unknown origin) by fluorimetric method
Mus musculus = test: Toxicity in ip dosed C3H X DBA2 F1 hybrid mouse […] with mouse L1210 cells on day 0 and dosed once daily on days 1 to 5 measured after 50 days; format: organism-based; settings: in vivo, 1200 h
L1210 [2] = test: Antitumor activity against mouse L1210 cells […] in ip dosed C3H X DBA2 F1 hybrid mouse on day 0 and dosed at LD10 level once daily on days 1 to 5 assessed as increase in life span relative to control; format: functional
L1210 [3] = test: Antitumor activity against mouse L1210 cells […] in ip dosed C3H X DBA2 F1 hybrid mouse on day 0 and dosed once daily on days 1 to 5 assessed as increase in life span relative to control; format: functional
[4] = Lipophilic-hydrophilic balance, Rm of the compound by partition chromatography; format: physicochemical
Bos taurus = organism: Bos taurus; test: Displacement of ethidium from calf thymus DNA by fluorimetric method
[5] = Displacement of ethidium from poly[d(A-T)]-poly[d(A-T)] DNA by fluorimetric method

Structure (SMILES)	C50 [1] [µM]	LD10 (Mus musculus) [mg/kg]	log(ILSmax) (L1210 [2])	D40 (L1210 [3]) [mg/kg]	Rm [4]	C50 (Bos taurus) [µM]	C50 [5] [µM]
C[n+]1ccc(Nc2ccc(NC(=O)c3ccc(-c4ccc(Nc5cc[n+](C)cc5)cc4)cc3)cc2)cc1.[I-].[I-]	3.01	2.6	2.28	0.6	0.06	2.04	0.37
C/C(=N\NC(=N)N)c1ccc(NC(=O)c2ccc(Nc3cc[n+](C)c4cc([N+](=O)[O-])ccc34)cc2)cc1.Cl.[Cl-]	0.74	56	2.18	5.9	-0.24	0.2	0.13
C[n+]1cccc(NC(=O)c2ccc(NC(=O)c3ccc(C(=O)Nc4ccc(C(=O)Nc5ccc[n+](C)c5)c(N)c4)cc3N)cc2)c1.Cc1ccc(S(=O)(=O)[O-])cc1.Cc1ccc(S(=O)(=O)[O-])cc1	0.54	9	2.32	1.4	-0.7	0.39	0.15
C[n+]1cccc2cc(NC(=O)c3ccc(NC(=O)c4ccc(C(=O)Nc5ccc6c(ccc[n+]6C)c5)cc4)cc3)ccc21.Cc1ccc(S(=O)(=O)[O-])cc1.Cc1ccc(S(=O)(=O)[O-])cc1	0.36	100	2.04	39	-0.7	0.37	0.28
C[n+]1ccc(Nc2ccc(NC(=O)/C=C/c3ccc(Nc4cc[n+](C)c5ccc(N)cc45)cc3)cc2)cc1.Cc1ccc(S(=O)(=O)[O-])cc1.Cc1ccc(S(=O)(=O)[O-])cc1	0.41	40	2.24	1.6	0.03	0.46	0.09
COc1cc(C(=O)Nc2ccc(C(=O)Nc3ccc[n+](C)c3)cc2)ccc1C(=O)Nc1ccc(C(=O)Nc2ccc[n+](C)c2)cc1.Cc1ccc(S(=O)(=O)[O-])cc1.Cc1ccc(S(=O)(=O)[O-])cc1	1.51	18	1.72	10.3	0.23	0.64	0.64
C[n+]1ccc(Nc2ccc(NC(=O)c3ccc(C(=O)Nc4ccc(Nc5cc[n+](C)c(N)n5)cc4)cc3)cc2)nc1N.Cc1ccc(S(=O)(=O)[O-])cc1.Cc1ccc(S(=O)(=O)[O-])cc1	0.64	75	2.2	8.6	-0.64	0.45	0.29
CC[n+]1cccc(NC(=O)c2ccc(NC(=O)c3ccc(C(=O)Nc4ccc5c(ccc[n+]5CC)c4)cc3)cc2)c1.Cc1ccc(S(=O)(=O)[O-])cc1.Cc1ccc(S(=O)(=O)[O-])cc1	1.48	9	2.2	2.3	0.09	0.74	0.62
C[n+]1ccc(Nc2ccc(NC(=O)c3ccc(Nc4cc[n+](C)c5cc(N)ccc45)cc3)cc2)cc1.[Br-].[Br-]	1.4	11	2.11	2	0.08	0.68	0.23
C[n+]1ccc(Nc2ccc(/C=C/c3ccc(Nc4cc[n+](C)c5ccc(N)cc45)cc3)cc2)cc1.[Br-].[Br-]	0.53	16	2.19	1.8	0.31	0.38	0.15
CCC[n+]1ccc(Nc2ccc(NC(=O)c3ccc(Nc4cc[n+](CCC)c5ccccc45)cc3)cc2)cc1.[Br-].[Br-]	3	15	1.81	8.8	0.74	2.3	0.2
C[n+]1ccc(Nc2ccc(C(=O)Nc3ccc(Nc4cc[n+](C)c5ccc(N)cc45)cc3)c(N)c2)cc1.[Br-].[Br-]	0.91	20	2.43	1	-0.3	0.6	0.15
CC[n+]1ccc(Nc2ccc(NC(=O)c3ccc(Nc4cc[n+](CC)c5ccc(N)cc45)cc3)cc2)cc1.[Br-].[Br-]	1.04	10	2.25	0.9	0.22	0.69	0.1
C[n+]1ccc(Nc2ccc(C(=O)Nc3ccc(Nc4c5ccccc5[n+](C)c5cc(N)ccc45)cc3)cc2)cc1.[Cl-].[Cl-]	0.16	37	2.23	2	0.47	0.11	0.06
C[n+]1ccc(Nc2ccc(NC(=O)/C=C/c3ccc(C(=O)Nc4ccc(Nc5cc[n+](C)cc5)cc4)cc3)cc2)cc1.Cc1ccc(S(=O)(=O)[O-])cc1.Cc1ccc(S(=O)(=O)[O-])cc1	0.51	11	2.28	4.2	-0.34	0.43	0.14
C[n+]1ccc(Nc2ccc(C(=O)Nc3ccc(Nc4cc[n+](C)c5cc(N)ccc45)cc3)cc2)cc1.Cc1ccc(S(=O)(=O)[O-])cc1.Cc1ccc(S(=O)(=O)[O-])cc1	1.04	25	2.34	1.5	-0.04	0.43	0.12
Cc1cc(Nc2ccc(NC(=O)c3ccc(C(=O)Nc4ccc(Nc5cc(C)[n+](C)c(N)n5)cc4)cc3)cc2)nc(N)[n+]1C.Cc1ccc(S(=O)(=O)[O-])cc1.Cc1ccc(S(=O)(=O)[O-])cc1	0.8	250	2.12	75	-0.71	0.5	0.4
C[n+]1ccc(Nc2ccc(/C=C/c3ccc(Nc4cc[n+](C)c5ccccc45)cc3)cc2)cc1.[Br-].[Br-]	0.67	23	1.89	12	0.61	0.34	0.13
C[n+]1cccc(NC(=O)c2ccc(NC(=O)c3ccc(C(=O)Nc4ccc(NC(=N)N)cc4)cc3)cc2)c1.I.[I-]	2.07	8	2.18	0.2	-0.12	1.38	0.91
C[n+]1ccc(Nc2ccc(NC(=O)c3ccc(/C=C/C4=NCCCN4)cc3)cc2)c2cc(N)ccc21.Cc1ccc(S(=O)(=O)O)cc1.Cc1ccc(S(=O)(=O)[O-])cc1	0.87	7	1.9	2	0.17	0.65	0.35
C[n+]1cc(-c2ccc(NC(=O)c3ccc(Nc4cc[n+](C)c5ccc(N)cc45)cc3N)cc2)c(N)nc1N.Cc1ccc(S(=O)(=O)[O-])cc1.Cc1ccc(S(=O)(=O)[O-])cc1	1.08	75	2.41	4.4	-0.25	0.62	0.11
